This is an account of results in patent US9062078B2, “Substituted 7-azabicyles and their use as orexin receptor modulators” (priority 2013, dated 2015).

Molecules are shown by their SMILES. Where two headings read alike, the source gives them in different places.

In one test the target is rat orexin 1 receptor (Rattus norvegicus, UniProt P56718). Kind of test: Rat orexin 1 receptor radioligand binding (competitive, [3H]-SB674042, HEK293 cell preparations).
In a further test the target is human orexin 2 receptor (Homo sapiens (Human), UniProt O43614). Kind of test: Human orexin 2 receptor radioligand binding (competitive, [3H]-EMPA, HEK293 cell preparations).
Sequence of human orexin 2 receptor (O43614 whole entry): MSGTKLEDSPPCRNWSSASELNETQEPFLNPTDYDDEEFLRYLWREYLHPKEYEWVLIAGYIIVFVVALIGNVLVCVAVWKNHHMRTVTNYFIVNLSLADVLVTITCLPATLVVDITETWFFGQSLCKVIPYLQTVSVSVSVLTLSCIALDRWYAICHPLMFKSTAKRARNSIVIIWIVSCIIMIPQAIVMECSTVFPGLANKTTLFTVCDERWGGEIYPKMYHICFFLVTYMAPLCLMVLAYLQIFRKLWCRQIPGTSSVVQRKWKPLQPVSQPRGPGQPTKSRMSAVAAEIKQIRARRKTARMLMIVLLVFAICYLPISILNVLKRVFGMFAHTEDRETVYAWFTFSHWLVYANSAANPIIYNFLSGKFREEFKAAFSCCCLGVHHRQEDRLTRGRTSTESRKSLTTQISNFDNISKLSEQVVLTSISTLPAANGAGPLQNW
[1] abbreviates: rat orexin 1 receptor, [3H]-SB674042 competition binding, read-out: rOX1 Ki (nm).
Setting [2] is: human orexin 2 receptor, [3H]-EMPA competition binding, read-out: hOX2 Ki (nm).

By Ki is commonly meant the equilibrium dissociation constant of an inhibitor or competing ligand from its target. In the case of `O=C(c1cccc(F)c1-c1ncccn1)N1C2CCC1C(Oc1ncc(C(F)(F)F)cn1)C2` (single isomer, unassigned) [Example 285, (±)-(3-fluoro-2-(pyrimidin-2-yl)phenyl)(2-(5-(trifluoromethyl)pyrimidin-2-yl)oxy)-7-azabicyclo[2.2.1]heptan-7-yl)methanone], the Ki is 720 nM on rat orexin 1 receptor (setting [1]) and > 10000 nM on human orexin 2 receptor (setting [2]).
Taken in the same sequence, the figures for `Cc1nc2sccn2c1C(=O)N1C2CCC1C(COc1ccccn1)C2` (racemic) [Example 156, (±)-(6-methylimidazo[2,1-b]thiazol-5-yl)(2-((pyridin-2-yloxy)methyl)-7-azabicyclo[2.2.1]heptan-7-yl)methanone] were > 10000 nM and > 10000 nM.
Taken in the same sequence, the figures for `O=C(c1ncc(Cl)cc1-n1nccn1)N1C2CCC1C(COc1ccc(F)cn1)C2` (racemic) [Example 112, (±)-(5-chloro-3-(2H-1,2,3-triazol-2-yl)pyridin-2-yl)(2-(((5-fluoropyridin-2-yl)oxy)methyl)-7-azabicyclo[2.2.1]heptan-7-yl)methanone] were 480 nM and 1000 nM.
In the same order, the values of `O=C(c1cccc(F)c1-c1ncccn1)N1C2CCC1C(Oc1ncc(C(F)(F)F)cn1)C2` (racemic) [Example 286, (±)-(3-fluoro-2-(pyrimidin-2-yl)phenyl)(2-((5-(trifluoromethyl)pyrimidin-2-yl)oxy)-7-azabicyclo[2.2.1]heptan-7-yl)methanone] are > 10000 nM and > 10000 nM.
Turning to `CCOc1ccnc(Cl)c1C(=O)N1C2CCC1C(COc1ccccn1)C2` (racemic) [Example 162, (±)-(2-chloro-4-ethoxypyridin-3-yl)(2-((pyridin-2-yloxy)methyl)-7-azabicyclo[2.2.1]heptan-7-yl)methanone], the Ki was 8500 nM on rat orexin 1 receptor (setting [1]) and > 10000 nM at human orexin 2 receptor (setting [2]).
Take `O=C(c1nc2ccccc2[nH]1)N1[C@@H]2CC[C@H]1[C@H](Nc1cnc(C(F)(F)F)cn1)C2` [Example 250, (1H-benzo[d]imidazol-2-yl)((1S,2R,4R)-2-((5-(trifluoromethyl)pyrazin-2-yl)amino)-7-azabicyclo[2.2.1]heptan-7-yl)methanone]: the Ki on rat orexin 1 receptor (setting [1]) is 5650 nM; at human orexin 2 receptor (setting [2]) it was > 10000 nM.
Regarding `Cc1ccc(-n2nccn2)c(C(=O)N2C3CCC2C(COc2cccnc2C)C3)n1` (racemic) [Example 54, (±)-(6-methyl-3-(2H-1,2,3-triazol-2-yl)pyridin-2-yl)(2-(((2-methylpyridin-3-yl)oxy)methyl)-7-azabicyclo[2.2.1]heptan-7-yl)methanone], the Ki on rat orexin 1 receptor (rOX1 Ki (nm)) turned out to be 3500 nM; at human orexin 2 receptor (setting [2]), 2200 nM.
For the compound `Cc1ccc(-c2ncccn2)c(C(=O)N2[C@H]3CC[C@@H]2[C@@H](COc2ccccn2)C3)n1` (single isomer, unassigned) [Example 3B, (6-methyl-3-(pyrimidin-2-yl)pyridin-2-yl)((1R*,2S*,4S*)-2-((pyridin-2-yloxy)methyl)-7-azabicyclo[2.2.1]heptan-7-yl)methanone], the Ki at rat orexin 1 receptor (rOX1 Ki (nm)) and on human orexin 2 receptor (hOX2 Ki (nm)) was > 10000 nM each time.
For `Cc1ccc(-n2nccn2)c(C(=O)N2C3CCC2C(COc2cccnn2)C3)n1` (racemic) [Example 53, (±)-(6-methyl-3-(2H-1,2,3-triazol-2-yl)pyridin-2-yl)(2-((pyridazin-3-yloxy)methyl)-7-azabicyclo[2.2.1]heptan-7-yl)methanone], the Ki on rat orexin 1 receptor (setting [1]) is 2200 nM; on human orexin 2 receptor (hOX2 Ki (nm)), > 10000 nM.
Taken in the same sequence, the figures for `Cc1ccc(-n2nccn2)c(C(=O)N2C3CCC2C(COc2ncccn2)C3)n1` (racemic) [Example 59, (±)-(6-methyl-3-(2H-1,2,3-triazol-2-yl)pyridin-2-yl)(2-((pyrimidin-2-yloxy)methyl)-7-azabicyclo[2.2.1]heptan-7-yl)methanone] were 2600 nM and 4900 nM.
On to `O=C(c1cccc(F)c1-c1ncccn1)N1[C@H]2CC[C@@H]1[C@@H](Nc1cnc(C(F)(F)F)cn1)C2` [Example 297, (3-fluoro-2-(pyrimidin-2-yl)phenyl)((1R,2S,4S)-2-((5-(trifluoromethyl)pyrazin-2-yl)amino)-7-azabicyclo[2.2.1]heptan-7-yl)methanone], for which the Ki at rat orexin 1 receptor (setting [1]) and on human orexin 2 receptor (setting [2]) was > 10000 nM each time.
`CCOc1nccc(C)c1C(=O)N1C2CCC1C(COc1ccccn1)C2` (racemic) [Example 155, (±)-(2-ethoxy-4-methylpyridin-3-yl)(2-((pyridin-2-yloxy)methyl)-7-azabicyclo[2.2.1]heptan-7-yl)methanone]: the values for the Ki on rat orexin 1 receptor (rOX1 Ki (nm)) and on human orexin 2 receptor (setting [2]) were 1570 nM and 3600 nM, respectively.
Taken in the same sequence, the figures for `O=C(c1nc2ccccc2cc1-n1nccn1)N1C2CCC1C(COc1ccccn1)C2` (racemic) [Example 74, (±)-(3-(2H-1,2,3-triazol-2-yl)quinolin-2-yl)(2-((pyridin-2-yloxy)methyl)-7-azabicyclo[2.2.1]heptan-7-yl)methanone] were 359 nM and 1700 nM.
On to `O=C(c1c(O)ccc2cccnc12)N1C2CCC1C(COc1ccccn1)C2` (racemic) [Example 159, (±)-(7-hydroxyquinolin-8-yl)(2-((pyridin-2-yloxy)methyl)-7-azabicyclo[2.2.1]heptan-7-yl)methanone], for which the Ki at rat orexin 1 receptor (setting [1]) stood at 262 nM; on human orexin 2 receptor (setting [2]), 786 nM.
In the same order, the values of `Cc1cc(C)nc(NC2CC3CCC2N3C(=O)c2nc(C)ccc2-c2ncccn2)n1` (racemic) [Example 200, (±)-(2-(((4,6-dimethylpyrimidin-2-yl)amino)-7-azabicyclo[2.2.1]heptan-7-yl)(6-methyl-3-(pyrimidin-2-yl)pyridin-2-yl)methanone] are 1100 nM and 552 nM.
For the compound `O=C(c1cc(F)ccc1-n1nccn1)N1C2CCC1C(CNc1cnc3ccccc3n1)C2` (racemic) [Example 174, (±)-(5-fluoro-2-(2H-1,2,3-triazol-2-yl)phenyl)(2-((quinoxalin-2-ylamino)methyl)-7-azabicyclo[2.2.1]heptan-7-yl)methanone], the Ki was found to be 373 nM at rat orexin 1 receptor (setting [1]) and 1000 nM at human orexin 2 receptor (setting [2]).
Take `COc1c(F)cccc1C(=O)N1C2CCC1C(Nc1nc(C)cc(C)n1)C2` (stereo not drawn) [Example 261, (2-((4,6-dimethylpyrimidin-2-yl)amino)-7-azabicyclo[2.2.1]heptan-7-yl)(3-fluoro-2-methoxyphenyl)methanone]: the results for the Ki on rat orexin 1 receptor (setting [1]) and at human orexin 2 receptor (setting [2]) were > 10000 nM and 5000 nM, respectively.
On to `Cc1ccc(-n2nccn2)c(C(=O)N2C3CCC2C(COc2ccnn2C)C3)n1` (racemic) [Example 56, (±)-(2-(((1-methyl-1H-pyrazol-5-yl)oxy)methyl)-7-azabicyclo[2.2.1]heptan-7-yl)(6-methyl-3-(2H-1,2,3-triazol-2-yl)pyridin-2-yl)methanone], for which the Ki on rat orexin 1 receptor (setting [1]) and at human orexin 2 receptor (hOX2 Ki (nm)) was > 10000 nM in each case.
`Cc1ccc(-n2nccn2)c(C(=O)N2C3CCC2C(COc2cnccn2)C3)n1` (racemic) [Example 60, (±)-(6-methyl-3-(2H-1,2,3-triazol-2-yl)pyridin-2-yl)(2-((pyrazin-2-yloxy)methyl)-7-azabicyclo[2.2.1]heptan-7-yl)methanone]: the Ki at rat orexin 1 receptor (setting [1]) was 7800 nM; on human orexin 2 receptor (hOX2 Ki (nm)), > 10000 nM.
Taken in the same sequence, the figures for `O=C(c1ccccc1-n1nccn1)N1C2CCC1C(Nc1ccc(C(F)(F)F)nn1)C2` (racemic) [Example 212, (±)-(2-(2H-1,2,3-triazol-2-yl)phenyl)(2-(6-(trifluoromethyl)pyridazin-3-yl)amino)-7-azabicyclo[2.2.1]heptan-7-yl)methanone] were 734 nM and 4900 nM.
Regarding `Cc1ccc(NC2CC3CCC2N3C(=O)c2ccccc2-n2nccn2)nc1` (racemic) [Example 214, (±)-(2-(2H-1,2,3-triazol-2-yl)phenyl)(2-(((5-methylpyridin-2-yl)amino)-7-azabicyclo[2.2.1]heptan-7-yl)methanone], the Ki came to 500 nM at rat orexin 1 receptor (rOX1 Ki (nm)) and 3100 nM on human orexin 2 receptor (hOX2 Ki (nm)).
For the compound `Cc1cnc(C(=O)N2C3CCC2C(Nc2cnc(C(F)(F)F)cn2)C3)c(-n2ccnn2)c1` (racemic) [Example 185, (±)-(5-methyl-3-(1H-1,2,3-triazol-1-yl)pyridin-2-yl)(2-(5-(trifluoromethyl)pyrazin-2-yl)amino)-7-azabicyclo[2.2.1]heptan-7-yl)methanone], the values for the Ki at rat orexin 1 receptor (setting [1]) and at human orexin 2 receptor (setting [2]) were 1500 nM and 2700 nM, respectively.
In the same order, the values of `Cn1c(C(=O)N2[C@@H]3CC[C@H]2[C@H](Nc2cnc(C(F)(F)F)cn2)C3)nc2ccccc21` [Example 251, (1-methyl-1H-benzo[d]imidazol-2-yl)((1S,2R,4R)-2-((5-(trifluoromethyl)pyrazin-2-yl)amino)-7-azabicyclo[2.2.1]heptan-7-yl)methanone] are 520 nM and 5300 nM.
For the compound `Cc1ccc(N2CCOCC2)c(C(=O)N2[C@@H]3CC[C@H]2[C@H](COc2ccccn2)C3)n1` (racemic) [Example 87, (±)-(6-methyl-3-morpholinopyridin-2-yl)((1S,2R,4R)-2-((pyridin-2-yloxy)methyl)-7-azabicyclo[2.2.1]heptan-7-yl)methanone], the Ki on rat orexin 1 receptor (setting [1]) is 4200 nM; at human orexin 2 receptor (hOX2 Ki (nm)), > 10000 nM.
Consider `O=C(c1cccc(F)c1-c1ncccn1)N1[C@@H]2CC[C@H]1[C@H](Nc1nccn3c(Br)cnc13)C2` [Example 270, ((1S,2R,4R)-2-((3-bromoimidazo[1,2-a]pyrazin-8-yl)amino)-7-azabicyclo[2.2.1]heptan-7-yl)(3-fluoro-2-(pyrimidin-2-yl)phenyl)methanone], for which the Ki on rat orexin 1 receptor (setting [1]) stood at 325 nM; at human orexin 2 receptor (setting [2]), 145 nM.
For the compound `COc1c(F)cccc1C(=O)N1C2CCC1C(Nc1ccc(F)cn1)C2` (racemic) [Example 237, (±)-(3-fluoro-2-methoxyphenyl)(2-(((5-fluoropyridin-2-yl)amino)-7-azabicyclo[2.2.1]heptan-7-yl)methanone], the Ki at rat orexin 1 receptor (rOX1 Ki (nm)) and at human orexin 2 receptor (hOX2 Ki (nm)) was > 10000 nM throughout.
With `Cn1ncc(-c2ccccc2)c1C(=O)N1C2CCC1C(COc1ccccn1)C2` (racemic) [Example 81, (±)-(1-methyl-4-phenyl-1H-pyrazol-5-yl)(2-((pyridin-2-yloxy)methyl)-7-azabicyclo[2.2.1]heptan-7-yl)methanone], the Ki on rat orexin 1 receptor (setting [1]) turned out to be 916 nM; at human orexin 2 receptor (setting [2]), 2900 nM.
